# Assay results: US10010560B2, “Small molecule HSP70 inhibitors” (THE TRUSTEES OF THE UNIVERSITY OF PENNSYLVANIA, priority 2014, dated 2018)
# What was measured:
# [1] = test system: BRAF(V600E); experiment: Western blot of client proteins in soluble and detergent-insoluble fractions; type: cell-based; conditions: melanoma tumor cells, soluble fraction
# Method: PET-16 promotes the loss of HSP90/HSP70 client proteins from the soluble fraction and the accumulation of some of these client proteins in the protein detergent-insoluble cellular fraction. Human melanoma cell lines (451 Lu, 1205 Lu and WM852) and mouse melanoma cell line (Yumm), as indicated, were treated with DMSO, PES or PET-16 for 24 hours. Cells were fractionated into detergent-soluble and detergent-insoluble preparations and assayed by Western blot (WB) analysis for the proteins indicated. […] The expression of many of these proteins is reduced in the soluble cell fractions, and often the abundance increases in the detergent insoluble fractions. This is indicative of loss of function of the client proteins.
# Western blotting, immunoprecipitations and B-PES pull down assays were performed as described in Leu 2009 and Leu 2011. Preparation of biotin-conjugated PES was described in Leu 2009 and Leu 2011; Balaburski, 2013. Liquid chromatography-tandem mass spectrometry was performed by the Genomics Institute and Abramson Cancer Center Proteomics Core Facility at the Perelman School of Medicine, University of Pennsylvania. Electron microscopy (EM) and EM imaging were performed by The Electron Microscopy Resource Laboratory, Biomedical Research Core Facilities, at the Perelman School of Medicine, University of Pennsylvania.
# [2] = target: T1, full-length, nucleotide-free HSP70 protein (Homo sapiens, UniProt P0DMV8, E110D); experiment: ITC binding to nucleotide-free full-length HSP70; conditions: average and s.d. of two experiments, read-out: dissociation constant
# T1 construct: Full-length recombinant proteins of HSP70 (aa 1-641) as well as DnaK (aa 1-638); His6 (N); made in house; host or cells: E. coli BL21 Star (DE3)
# Source text: FIGS. 3A-3L illustrate that PET-16 binds directly to ADP-bound HSP70 and DnaK. Specifically, FIGS. 3A-3H are isothermal calorimetric titration (ITC) assays of the indicated compounds (NRLLLTG—SEQ ID NO: 7, PES or PET-16) with purified HSP70-ADP, DnaK-ADP or HSP70-ATP proteins. The data are representative of three independent experiments. FIGS. 3I and 3J are ITC assays for the interaction between HSP70 (aa 386-616 of SEQ ID NO: 2) protein and PET-16 (I) or TPP (J). Binding constants (Kd values) are shown (average and s.d. from three independent experiments). PET-16 also binds directly to the purified, full-length, nucleotide-free HSP70 protein, with a reported dissociation constant of 5.2+/−0.1 micromolar, which is the average and standard deviation from two independent experiments (data not shown). FIG. 3K is ITC assay of HSP70 protein preincubated with ADP and PES for 1 h. The mixture was titrated into the sample cell containing PET-16. The data are representative of three independent ITC experiments. FIG. 3L are western blots of human lung carcinoma (H1299) cells that were pretreated with DMSO or excess (8×) PET-16 for 1 h prior to the addition of 20 μM B-PES for 5 h and examined for the expression of HSP70 or BCL-xL. B-PES-containing complexes were captured by Avidin resins and immunoblotted either with anti-HSP70 or anti-BCL-xL antibody. […]
# [3] = test system: non-transformed cells (fibroblasts, primary melanocytes); experiment: Viability of non-transformed cells; type: cell-based, human; conditions: at concentrations that inhibit tumor cell viability
# Method: FIGS. 2A-2D illustrate the cytotoxicity of PET-16 to human tumor cells and its inhibition on E. coli growth. FIG. 2A is a line graph with data obtained from MTT assays of human melanoma cell lines treated with the indicated concentrations of PES or PET-16 for 72 h. The corresponding cell survival is normalized to vehicle (DMSO) treatment. Average and standard deviation (s.d.) from three independent experiments are shown. FIG. 2B are bar graphs of human melanoma (A875) cells and nontransformed human (IMR90) fibroblasts that were treated with DMSO, 10 μM PES or 10 μM PET-16 for 24 h. […] FIG. 2C is a line graph illustrating the growth of E. coli DH5α treated with different concentrations of PES or PET-16 for 6 h at 43° C. Error bars represent the s.d. of four independent experiments. FIG. 2D is a bar graph illustrating the growth of E. coli DH5α treated with DMSO, 30 μM PET-16 or 30 μM TPP for 6 h at 43° C. Error bars represent the s.d. of four independent experiments.
# T1 sequence (P0DMV8 whole entry E110D, the tested form may be a part): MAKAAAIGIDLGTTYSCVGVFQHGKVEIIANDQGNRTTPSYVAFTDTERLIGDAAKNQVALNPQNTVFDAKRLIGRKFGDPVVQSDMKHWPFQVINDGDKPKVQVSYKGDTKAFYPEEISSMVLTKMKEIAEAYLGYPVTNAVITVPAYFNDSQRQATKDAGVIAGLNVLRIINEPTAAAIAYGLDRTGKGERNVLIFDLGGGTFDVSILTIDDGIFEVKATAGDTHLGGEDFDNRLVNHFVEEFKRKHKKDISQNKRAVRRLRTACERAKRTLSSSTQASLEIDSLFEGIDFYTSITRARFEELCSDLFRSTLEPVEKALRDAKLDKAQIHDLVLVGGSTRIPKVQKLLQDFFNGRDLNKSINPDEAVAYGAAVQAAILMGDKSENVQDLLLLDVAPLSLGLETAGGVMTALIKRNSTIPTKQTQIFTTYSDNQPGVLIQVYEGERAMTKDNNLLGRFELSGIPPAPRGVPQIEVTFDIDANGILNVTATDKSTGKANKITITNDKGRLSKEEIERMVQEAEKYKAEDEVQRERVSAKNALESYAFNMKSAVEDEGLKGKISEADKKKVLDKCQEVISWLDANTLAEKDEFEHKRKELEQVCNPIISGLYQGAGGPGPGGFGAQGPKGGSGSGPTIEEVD
compound,measurement,setting,value
"C(#C[P+](c1ccccc1)(c1ccccc1)c1ccccc1)c1ccccc1.[Br-] [PET-16, triphenyl(phenylethynyl)phosphonium bromide]",BRAF(V600E) protein abundance,[1],reduction
same,Kd,[2],5.2 µM
same,effect on viability of non-transformed cells,[3],little effect
